From patent US20180042918A1, “RESPIRATORY INFECTION TREATING AGENT” (KYORIN PHARMACEUTICAL CO., LTD., priority 2015, published 2018)
≈ marks a conversion by molar mass, not a printed value. Read-outs that look alike come from different tables or passages of the source. Marks after values point to notes of the source that are not given here.

Experiments:
S. aureus ATCC29213 = assay: Frequency of development of resistant bacteria; format: cell-based, Staphylococcus aureus; conditions: for development of resistant bacteria (in words): S. aureus ATCC29213, 4 to 16 × MIC; for FREQUENCY OF DEVELOPMENT OF RESISTANT BACTERIA (AVERAGE OF TWO MEASURED VALUES): about 70 hours
Experimental: (§1) S. aureus ATCC29213 is Staphylococcus aureus, S. pneumoniae ATCC49619 is Streptococcus pneumoniae, and E. coli ATCC25922 is Escherichia coli. […]
(§2) The frequency of development of resistant bacteria was calculated by dividing the number of colonies developed on an agar medium having each drug concentration by the number of initially inoculated bacteria.

S. pneumoniae ST9941 = assay: microbe, parasite or virus in culture; format: cell-based; conditions: Streptococcus pneumoniae
S. pneumoniae KY-9 [1] = assay: Antibacterial activity against Streptococcus pneumoniae in vitro, CLSI microdilution; format: cell-based; conditions: KY9
Experimental: The antibacterial activities in vitro of the compound D, garenoxacin, and levofloxacin against a strain in a mouse infected with Streptococcus pneumoniae (S. pneumonia KY-9) were measured in accordance with a CLSI microdilution method.

S. pneumoniae SF9863 = assay: microbe, parasite or virus in culture; format: cell-based; conditions: Streptococcus pneumoniae
S. pneumoniae SN9981 = assay: microbe, parasite or virus in culture; format: cell-based; conditions: Streptococcus pneumoniae
E. coli ATCC25922 [2] = assay: microbe, parasite or virus in culture; format: cell-based; conditions: Escherichia coli
[3] = target: Topoisomerase IV (S. pneumoniae IID553) (Streptococcus pneumoniae serotype 4, UniProt P72525+Q59961); assay: Enzyme inhibitory activity, decatenation of kinetoplast DNA
S. pneumoniae KY-9 [4] = assay: Number of bacteria in the lung, mouse lung infection; format: in vivo, Streptococcus pneumoniae
Experimental: S. pneumoniae KY-9 was inoculated at 7.4×10^5 CFU/mouse via the respiratory tract into the lung in a mouse in which cyclophosphamide had been administrated. 2.9 to 3.1 hours, 17.3 to 19.1 hours, and 24.4 to 26.1 hours after the inoculation, the drug (the compound D, levofloxacin, or garenoxacin) was subcutaneously administrated (SC) or orally administrated (PO) three times in total. The number of bacteria in the lung 16.5 to 17.0 hours after the final administration was measured.
“*” described in FIGS. 1 and 2 means that a significant difference of p<0.05 in a Vehicle group was observed, and “**” means that a significant difference of p<0.001 in the Vehicle group was observed (Dunnett's multiple comparison test, parametric).
Here, CFU is an abbreviation of Colony Forming Unit, and represents the unit of number of bacteria. Log CFU/Lung means the number of viable bacteria in the lung. Log CFU/Lung was determined as follows. The lung obtained from the mouse was homogenated to obtain a bacterial culture. The bacterial culture was appropriately diluted, applied to an agar plate medium, and cultured. Log CFU/Lung was determined on the basis of the number of developed colonies.

E. coli ATCC25922 [5] = assay: Frequency of development of resistant bacteria; format: cell-based, Escherichia coli; conditions: for FREQUENCY OF DEVELOPMENT OF RESISTANT BACTERIA (AVERAGE OF TWO MEASURED VALUES): about 70 hours
Experimental: as §1, §2

[6] = test system: M. catarrhalis (26 STRAINS); assay: Antibacterial activity against clinically isolated strains, MIC90; format: cell-based; conditions: Moraxella catarrhalis, 26 clinically isolated strains
Experimental: (§3) The antibacterial activities in vitro of the compound D, garenoxacin, and levofloxacin against each clinically isolated strain of Streptococcus pneumoniae, Moraxella catarrhalis, and Haemophilus influenzae were measured in accordance with a CLSI microdilution method or a CLSI agar dilution method. A MIC90 value was the minimum concentration in which the growth of 90% strain of all the measured strains was inhibited.

[7] = test system: H. influenzaes (26 STRAINS); assay: as above; format: cell-based; conditions: Haemophilus influenzae, 26 clinically isolated strains
Experimental: as §3

[8] = test system: PCG-LOW SENSITIVE S. pneumoniae (22 STRAINS); assay: as above; format: cell-based; conditions: Streptococcus pneumoniae, 22 clinically isolated strains
Experimental: as §3

PSSP (26 STRAINS) = assay: as above; format: cell-based; conditions: Streptococcus pneumoniae, 26 clinically isolated strains
Experimental: as §3

S. pneumoniae IID553 = assay: microbe, parasite or virus in culture; format: cell-based; conditions: Streptococcus pneumoniae
[9] = target: DNA gyrase derived from S. pneumoniae IID553 (Streptococcus pneumoniae serotype 4, UniProt P0A4L9+P72524); assay: Enzyme inhibitory activity, supercoiling of relaxed pBR322
S. aureus MS5935 4th = assay: microbe, parasite or virus in culture; format: cell-based; conditions: for MIC: Staphylococcus aureus, MS59354TH
S. pneumoniae CF9842 = assay: microbe, parasite or virus in culture; format: cell-based; conditions: Streptococcus pneumoniae
[10] = target: DNA gyrase derived from S. aureus (Staphylococcus aureus, UniProt P0A0K8+P20831); assay: Enzyme inhibitory activity, supercoiling of relaxed pBR322; format: biochemical
Experimental: (§4) Agents Chemother. 45: 3544-3547 (2001). […] The measurement was performed in the same manner as in Test Example 3. Similarly, the inhibitory activities of ciproxacin, levofloxacin, and garenoxacin were measured. The results were compared.

[11] = target: QUINOLONE RESISTANT DNA gyrase (quinolone-resistant S. aureus) (Staphylococcus aureus, UniProt P20831); assay: as above; format: biochemical
Experimental: as §4

S. aureus MS5935 3rd = assay: microbe, parasite or virus in culture; format: cell-based; conditions: Staphylococcus aureus, MS59353RD
[12] = target: QUINOLONE RESISTANT Topoisomerase IV (S. aureus) (Staphylococcus aureus, UniProt P0C1U9); assay: Enzyme inhibitory activity, decatenation of kinetoplast DNA; format: biochemical
Experimental: as §4

[13] = target: Topoisomerase IV (S. aureus) (Staphylococcus aureus, UniProt P0C1S7+P0C1U9); assay: as above; format: biochemical
Experimental: as §4

| Structure (SMILES) | development of resistant bacteria (in words) (S. aureus ATCC29213) | FREQUENCY OF DEVELOPMENT OF RESISTANT BACTERIA (AVERAGE OF TWO MEASURED VALUES) (S. aureus ATCC29213; S. aureus ATCC29213, 4 × MIC) | FREQUENCY OF DEVELOPMENT OF RESISTANT BACTERIA (AVERAGE OF TWO MEASURED VALUES) (S. aureus ATCC29213; S. aureus ATCC29213, 8 × MIC) | FREQUENCY OF DEVELOPMENT OF RESISTANT BACTERIA (AVERAGE OF TWO MEASURED VALUES) (S. aureus ATCC29213; S. aureus ATCC29213, 16 × MIC) | MIC (S. pneumoniae ST9941) [µg/mL] | MIC (S. pneumoniae KY-9 [1]) [µg/mL] | MIC (S. pneumoniae SF9863) [µg/mL] | MIC (S. pneumoniae SN9981) [µg/mL] | MIC (E. coli ATCC25922 [2]) [µg/mL] | IC50 [3] [µM] | FREQUENCY OF DEVELOPMENT OF RESISTANT BACTERIA (AVERAGE OF TWO MEASURED VALUES) (E. coli ATCC25922 [5]; E. coli ATCC25922, 4 × MIC) | FREQUENCY OF DEVELOPMENT OF RESISTANT BACTERIA (AVERAGE OF TWO MEASURED VALUES) (E. coli ATCC25922 [5]; E. coli ATCC25922, 8 × MIC) | FREQUENCY OF DEVELOPMENT OF RESISTANT BACTERIA (AVERAGE OF TWO MEASURED VALUES) (E. coli ATCC25922 [5]; E. coli ATCC25922, 16 × MIC) | MIC90 [6] [µg/mL] | MIC90 [7] [µg/mL] | MIC90 [8] [µg/mL] | MIC90 (PSSP (26 STRAINS)) [µg/mL] | MIC (S. pneumoniae IID553) [µg/mL] | IC50 [9] [µM] | MIC (S. aureus MS5935 4th) [µg/mL] | further results |
| --- | --- | --- | --- | --- | --- | --- | --- | --- | --- | --- | --- | --- | --- | --- | --- | --- | --- | --- | --- | --- | --- |
| COc1c(N2C[C@H](CNC3CC3)[C@H](F)C2)c(F)cc2c(=O)c(C(=O)O)cn(CCF)c12.Cl [Compound D, 7-[(3S,4S)-3-{(cyclopropylamino)methyl}-4-fluoropyrrolidine-1-yl]-6-fluoro-1-(2-fluoroethyl)-8-methoxy-4-oxo-1,4-dihydroquinoline-3-carboxylic acid hydrochloride] | not observed | <2.1 × 10^−9 | <2.1 × 10^−9 | <2.1 × 10^−9 | 0.5 | 0.06 | 0.06 | 0.25 | 0.06 | 2.73 | <1.9 × 10^−9 | <1.9 × 10^−9 | <1.9 × 10^−9 | 0.06 | 0.06 | 0.06 | 0.06 | 0.06 | 12.6 | 2 | therapeutic effect, number of bacteria in the lung (S. pneumoniae KY-9 [4]; oral administration): excellent as compared with garenoxacin and levofloxacin; decrease in number of bacteria in the lung versus Vehicle (S. pneumoniae KY-9 [4]; subcutaneous, 6.3 mg and 25 mg/kg): significant dose-dependent decrease; difference in number of viable bacteria in the lung, compound D versus garenoxacin (S. pneumoniae KY-9 [4]; subcutaneous, 25 mg/kg groups): about 1,000 times; development of resistant bacteria (in words) (E. coli ATCC25922 [5]; E. coli ATCC25922, 4 to 16 × MIC): not observed; potency (action strength) relative to the other quinolone compounds (S. aureus MS5935 4th; 4th step quadruple mutant S. aureus, from MIC): ≥ 16 times; MIC (S. pneumoniae CF9842): 0.06 µg/mL; IC50 [10]: 3.57 µM; IC50 ([11]; read-out: IC50 VALUE, QUINOLONE RESISTANT DNA gyrase, average of three or average ± SD): 35.7 µM; MIC (S. aureus MS5935 3rd): 0.5 µg/mL; IC50 ([12]; read-out: IC50 VALUE, QUINOLONE RESISTANT Topoisomerase IV): 5.88 µM; IC50 [13]: 1530 nM |
| C[C@H]1NCc2cc(-c3ccc4c(=O)c(C(=O)O)cn(C5CC5)c4c3OC(F)F)ccc21 [GRNX, garenoxacin] | developed | 8.2 × 10^−9* | <2.1 × 10^−9 | <2.1 × 10^−9 | 2 (≈ 4.69 µM) | 0.03 (≈ 0.0704 µM) | 0.25 (≈ 0.586 µM) | 1 (≈ 2.35 µM) | 0.03 (≈ 0.0704 µM) | 5.16 | <1.9 × 10^−9 | <1.9 × 10^−9 | <1.9 × 10^−9 | 0.015 (≈ 0.0352 µM) | 0.015 (≈ 0.0352 µM) | 0.06 (≈ 0.141 µM) | 0.06 (≈ 0.141 µM) | 0.06 (≈ 0.141 µM) | 84.4 | 32 (≈ 75 µM) | significant decrease in number of bacteria in the lung versus Vehicle (S. pneumoniae KY-9 [4]; subcutaneous, 6.3 mg/kg): not observed; significant decrease in number of bacteria in the lung versus Vehicle (S. pneumoniae KY-9 [4]; subcutaneous, 25 mg/kg): a significant decrease in number of bacteria in the lung was observed; MIC (S. pneumoniae CF9842): 0.125 µg/mL (≈ 0.293 µM); IC50 ([10]; S. aureus enzyme, average of three or average ± SD, read-out: IC50 VALUE, DNA gyrase (converted)): 25.8 µM; IC50 ([11]; average of three or average ± SD, read-out: IC50 VALUE, QUINOLONE RESISTANT DNA gyrase (converted)): 985 µM; MIC (S. aureus MS5935 3rd): 8 µg/mL (≈ 18.8 µM); IC50 ([12]; read-out: IC50 VALUE, QUINOLONE RESISTANT Topoisomerase IV (converted)): 63.3 µM; IC50 ([13]; S. aureus enzyme, read-out: IC50 VALUE, Topoisomerase IV (converted)): 4460 nM |
